Experimental data from patent publication US20150316548A1, “PROGRANULIN AS MARKER FOR AUTOIMMUNE DISORDERS” (UNIVERSITAET DES SAARLANDES, priority 2012, published 2015).
“Also recorded” adds a separate entry of the source.

Test system: hyperphosphorylation of progranulin at Ser81 in lymphoblastoid cell lines (LCL)
Assay: Kinase inhibitors added to cultured lymphoblastoid cell lines (LCL), progranulin isoforms read by IEF and immunoblot
Assay type: cell-based, human
Settings: for hyperphosphorylated progranulin isoform in IEF: LCL culture
Protocol: Lymphoblastoid cell lines (LCLs) were established by infection of PBMCs with EBV as described before.
Isoelectric focusing was performed as described before. In short, whole blood cell extracts or extracts of LCLs were washed and treated with lysis buffer (8 M urea, 0.1 M NaH2PO4, 0.01 M Tris HCl, 0.1% NP40). Following to this, isoelectric focusing was performed (pH 3-10, Invitrogen) according to the manufacturer's protocol (1 hour 100 V, 1 hour 200 V, and 30 minutes 500 V). After semi-dry blotting on PVDF membranes (450 mA, 24V, 1 hour), patient's plasma was used for immunodetection of progranulin from whole blood cell lysates and murine anti-FLAG antibody (Sigma) was used at a dilution of 1:2,000 for immunodetection of progranulin from LCL lysates. These LCLs had been previously transfected with FLAG-tagged progranulin in pRTS. The membrane was blocked in TST/milk buffer (10% milk in 10 mM Tris/HCl, pH 7.5, 150 mM NaCl, 0.1% [v/v] Tween 20) overnight, washed, and incubated for 1 hour with plasma in TST or murine anti-FLAG-antibody. After 3 washings in TST, the membranes were incubated for 1 hour at room temperature with PDX-labeled goat anti-human IgG Ab (Dianova) diluted 1:5,000 or PDX-labeled anti-mouse IgG Ab (Biorad) in TST, subsequently washed in TST followed by ECL development. To perform IEF on different cell fractions, PBMCs and granulocytes were isolated by density double gradient centrifugation (Histopaque-1077 and -1119, Sigma). Monocytes, B-cells and T-cells were sorted with CD14, CD19 and CD3. Mucosa cells were obtained by swab from the oral cavities of patients and controls.
Stable transfected lymphoblastoid cell lines were cultured at 2×10e6 cells/ml in the presence of selected inhibitory compounds as indicated to narrow down the number of candidate kinases responsible for hyperphosphorylation at Ser81. […] After 3 days, cells were removed and analyzed by isoelectric focusing (IEF) and immunoblot detection. After the identification of PKC as the responsible kinase for the phosphorylation of serine 81, the same procedure was repeated with other selected inhibitory compounds to identify the subclass of PKC. The selected inhibitory compounds for the identification of the PKC subunit were: Staurosporin at […], 15 nM and 30 nM. Bisindolylmaleimide I (BIM I) at 1 nM, 5 nM, 10 nM and 20 nM, Rottlerin at 5 μM, 10 μM, 40 μM and 100 μM and the PKCβ-inhibitor at a concentration of 5 nm specifically for PKCβ-II and at a concentration of 21 nm for PKCβ-I and PKCβ-II.

## CN[C@@H]1C[C@H]2O[C@@](C)([C@@H]1OC)n1c3ccccc3c3c4c(c5c6ccccc6n2c5c31)C(=O)NC4 [Staurosporin]
2.5 pM, LCL of progranulin-antibody positive patients and of healthy controls
  electrical charge of the normal progranulin isoform in IEF: slight shift of the band of the normal progranulin isoform towards an electronically less negatively charged isoform
5 pM, LCL of progranulin-antibody positive patients and of healthy controls
  electrical charge of the normal progranulin isoform in IEF: slight shift of the band of the normal progranulin isoform towards an electronically less negatively charged isoform
2.5 μM, LCL of a healthy control
  electrical charge of the normal progranulin isoform in IEF: change in the electrical charge of “normal” progranulin appeared as well
2.5 μM, LCL of a progranulin-antibody positive patient
  electrical charge of the normal progranulin isoform in IEF: change in the electrical charge
5 μM, LCL of a healthy control
  electrical charge of the normal progranulin isoform in IEF: change in the electrical charge of “normal” progranulin appeared as well
5 μM, LCL of a progranulin-antibody positive patient
  electrical charge of the normal progranulin isoform in IEF: change in the electrical charge
Inhibitor at 10 nM
  hyperphosphorylated progranulin isoform in IEF: led only to the disappearance of the hyperphosphorylated progranulin isoform
Inhibitor at 15 nM
  hyperphosphorylated progranulin isoform in IEF: wasn't detectable
Inhibitor at 30 nM
  hyperphosphorylated progranulin isoform in IEF: wasn't detectable; also recorded: led only to the disappearance of the hyperphosphorylated progranulin isoform
Inhibitor at 2.5 μM
  hyperphosphorylated progranulin isoform in IEF: disappearance of the hyperphosphorylated progranulin isoform
Inhibitor at 5 μM
  hyperphosphorylated progranulin isoform in IEF: disappearance of the hyperphosphorylated progranulin isoform

## O=c1oc2c(O)c(O)cc3c(=O)oc4c(O)c(O)cc1c4c23 [Ellagic Acid]
10 pM, LCL of progranulin-antibody positive patients and of healthy controls
  electrical charge of the normal progranulin isoform in IEF: slight shift of the band of the normal progranulin isoform towards an electronically less negatively charged isoform
50 μM, LCL of a healthy control
  electrical charge of the normal progranulin isoform in IEF: change in the electrical charge of “normal” progranulin appeared as well
50 μM, LCL of a progranulin-antibody positive patient
  electrical charge of the normal progranulin isoform in IEF: change in the electrical charge
Inhibitor at 50 μM
  hyperphosphorylated progranulin isoform in IEF: disappearance of the hyperphosphorylated progranulin isoform

## CN(C)CCCn1cc(C2=C(c3c[nH]c4ccccc34)C(=O)NC2=O)c2ccccc21 [Bisindolylmaleimide I]
Inhibitor at 1 nM
  hyperphosphorylated progranulin isoform in IEF: didn't inhibit the hyperphosphorylation
Inhibitor at 5 nM
  hyperphosphorylated progranulin isoform in IEF: didn't inhibit the hyperphosphorylation
Inhibitor at 10 nM
  hyperphosphorylated progranulin isoform in IEF: didn't inhibit the hyperphosphorylation
Inhibitor at 20 nM
  hyperphosphorylated progranulin isoform in IEF: the hyper-phosphorylated isoform disappeared
Inhibitor at 20 nM, listed as Bis-indolyl-maleimide I
  hyperphosphorylated progranulin isoform in IEF: led to the disappearance of the hyperphosphorylated isoform

## CC(=O)c1c(O)c(C)c(O)c(Cc2c(O)c3c(c(C(=O)/C=C/c4ccccc4)c2O)OC(C)(C)C=C3)c1O [Rottlerin]
Inhibitor at 5 μM
  hyperphosphorylated progranulin isoform in IEF: could not inhibit the phosphorylation of Ser81
Inhibitor at 10 μM
  hyperphosphorylated progranulin isoform in IEF: could not inhibit the phosphorylation of Ser81
Inhibitor at 40 μM
  hyperphosphorylated progranulin isoform in IEF: could not inhibit the phosphorylation of Ser81
Inhibitor at 100 μM
  hyperphosphorylated progranulin isoform in IEF: could not inhibit the phosphorylation of Ser81
Inhibitor at different concentrations
  hyperphosphorylated progranulin isoform in IEF: not possible to inhibit the responsible kinase

## O=C1NC(=O)C(c2cn(CCCn3ccnc3)c3ccccc23)=C1Nc1ccccc1 [PKCβ-inhibitor]
Inhibitor at 21 nM
  hyperphosphorylated progranulin isoform in IEF: led to the disappearance of the hyperphosphorylated isoform
